Here are results for 7 compounds from PubChem BioAssay (NCI).

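These data come from cells grown in 96-well plates and exposed to compound for 48 hours at five concentrations. GI50 marks 50% less growth. TGI: concentration producing complete growth inhibition.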 Where only a bound is given, the exact number is not on record here.

Test systems include HT29 colon; SK-MEL-2 melanoma; RXF 393 renal; MDA-MB-435; OVCAR-5 ovarian; CAKI-1 renal; UACC-257 melanoma; LOX IMVI melanoma; SK-MEL-5 melanoma; SNB-19 CNS.
What all share (assay): NCI anticancer screen, dose series, 48 h

For `CC(=O)Nc1n[n+]([O-])c2cc(C)ccc2[n+]1[O-]`, the TGI was found to be 13.4 µM in the test on HT29 colon; 26.5 µM in the test on SK-MEL-2 melanoma; 22.6 µM in the test on RXF 393 renal; 20.8 µM in the test with MDA-MB-435; 33.5 µM with OVCAR-5 ovarian; 12 µM with CAKI-1 renal. The TGI with UACC-257 melanoma worked out at 18.7 µM; in the test on LOX IMVI melanoma, 11.5 µM; in the test on SK-MEL-5 melanoma, 3.87 µM; in the test on SNB-19 CNS, 23.3 µM.

As to `CN(C)c1cccc(F)c1C(=O)NC(=O)Nc1ccc(Cl)cc1`, the TGI was over 23.2 µM in the test on HT29 colon; over 67.9 µM in the test on SK-MEL-2 melanoma; 69.6 µM in the test with RXF 393 renal; 3.44 µM with MDA-MB-435; over 100 µM with OVCAR-5 ovarian; 99 µM in the test on CAKI-1 renal. Also, the TGI in the test on UACC-257 melanoma, with LOX IMVI melanoma, in the test with SK-MEL-5 melanoma and with SNB-19 CNS was over 100 µM in each case.

`COc1cnc2c(c1)C(=O)c1c-2n(CCCN2CCC(O)CC2)c(=O)c2cc(Cl)ccc12`: the GI50 is 0.59 µM with HT29 colon; 17.4 µM with SK-MEL-2 melanoma; 0.347 µM in the test with RXF 393 renal; 12.9 µM in the test with MDA-MB-435; 1.63 µM in the test with OVCAR-5 ovarian; 0.0729 µM in the test on CAKI-1 renal. Moreover, the GI50 is 12.2 µM in the test with UACC-257 melanoma, 0.0758 µM with LOX IMVI melanoma, 1.92 µM with SK-MEL-5 melanoma and 0.243 µM with SNB-19 CNS. The TGI in the test on HT29 colon stood at 2.43 µM; in the test on SK-MEL-2 melanoma, 33.4 µM; in the test on RXF 393 renal, 1.72 µM; with MDA-MB-435, 25.7 µM; in the test with OVCAR-5 ovarian, 3.43 µM; with CAKI-1 renal, 15.1 µM. In addition, the TGI came out at 26.2 µM with UACC-257 melanoma, 1.46 µM in the test on LOX IMVI melanoma, 20.4 µM in the test with SK-MEL-5 melanoma and 3.46 µM in the test on SNB-19 CNS.

In the case of `COc1cc(Cl)cc(-c2nn(-c3cccc(NC(=O)Nc4ccc(Cl)c(Cl)c4)c3)cc2-c2ccncc2)c1`, the GI50 with HT29 colon was 2.38 µM; in the test with SK-MEL-2 melanoma, 1.64 µM; in the test with RXF 393 renal, 1.96 µM; in the test on MDA-MB-435, 2.08 µM; in the test with OVCAR-5 ovarian, 4.36 µM; in the test on CAKI-1 renal it was 2.38 µM. In addition, the GI50 in the test with UACC-257 melanoma was 1.84 µM; in the test on LOX IMVI melanoma it was 2.91 µM; with SK-MEL-5 melanoma, 1.62 µM; in the test on SNB-19 CNS, 3.51 µM. Besides, the TGI with HT29 colon was 9.07 µM; in the test with SK-MEL-2 melanoma, 3.74 µM; with RXF 393 renal, 7.25 µM; in the test with MDA-MB-435, 6 µM; in the test with OVCAR-5 ovarian, over 100 µM; in the test with CAKI-1 renal it was 16.7 µM. Besides, the TGI in the test on UACC-257 melanoma was 5.19 µM; in the test on LOX IMVI melanoma, 12.4 µM; in the test on SK-MEL-5 melanoma, 3.17 µM; in the test on SNB-19 CNS it was over 100 µM.

For the compound `NC1(Cc2ccc(Cl)cc2)CCN(c2ncnc3[nH]ccc23)CC1`, the GI50 with HT29 colon is 3.7 µM; with SK-MEL-2 melanoma, 14.6 µM; with RXF 393 renal it was 1.41 µM; with MDA-MB-435, 4.67 µM; in the test on OVCAR-5 ovarian it was 8.33 µM; in the test on CAKI-1 renal, 3.94 µM. Also, the GI50 in the test on UACC-257 melanoma is 13.1 µM; in the test with LOX IMVI melanoma, 4.43 µM; in the test on SK-MEL-5 melanoma, 14.9 µM; with SNB-19 CNS, 5.33 µM. Further, the TGI with HT29 colon was found to be 17.8 µM; with SK-MEL-2 melanoma, 31 µM; with RXF 393 renal it was 7.12 µM; in the test on MDA-MB-435, 18.1 µM; in the test with OVCAR-5 ovarian, 43.6 µM; in the test on CAKI-1 renal, 19.3 µM. Further, the TGI in the test with UACC-257 melanoma came out at 26.5 µM; in the test with LOX IMVI melanoma, 17.7 µM; in the test on SK-MEL-5 melanoma, 28.2 µM; in the test with SNB-19 CNS, 21.3 µM.

As to `Cc1[nH]c2cc(F)ccc2c1-c1nc2c3cccnc3c3ncccc3c2[nH]1`, the GI50 was 0.436 µM in the test on HT29 colon; 0.504 µM in the test on SK-MEL-2 melanoma; 0.19 µM in the test with RXF 393 renal; 0.342 µM in the test with MDA-MB-435; 0.573 µM in the test with OVCAR-5 ovarian; 0.289 µM in the test on CAKI-1 renal. The GI50 in the test on UACC-257 melanoma was 0.228 µM; in the test on LOX IMVI melanoma, 0.0472 µM; with SK-MEL-5 melanoma, 0.169 µM; with SNB-19 CNS, 0.257 µM. Further, the TGI in the test with HT29 colon stood at 1.66 µM; in the test with SK-MEL-2 melanoma, 1.75 µM; in the test on RXF 393 renal it was 0.785 µM; with MDA-MB-435, 1.48 µM; in the test with OVCAR-5 ovarian it was 2.65 µM; in the test on CAKI-1 renal, 1.19 µM. Besides, the TGI in the test with UACC-257 melanoma came out at 0.833 µM; in the test on LOX IMVI melanoma it was 0.697 µM; in the test on SK-MEL-5 melanoma, 0.726 µM; in the test with SNB-19 CNS it was 3.87 µM.

Regarding `NC(CSSCC(N)C(=O)O)C(=O)O` (stereo not given), the GI50 in the test on HT29 colon, in the test with SK-MEL-2 melanoma, with RXF 393 renal, in the test with MDA-MB-435, in the test on OVCAR-5 ovarian and in the test on CAKI-1 renal was over 100 µM throughout. For the same compound, the GI50 with UACC-257 melanoma, in the test with LOX IMVI melanoma, in the test with SK-MEL-5 melanoma and in the test on SNB-19 CNS was over 100 µM in each case. Besides, the TGI in the test on HT29 colon, in the test on SK-MEL-2 melanoma, with RXF 393 renal, with MDA-MB-435, in the test on OVCAR-5 ovarian and in the test on CAKI-1 renal was over 100 µM throughout. The TGI in the test with UACC-257 melanoma, with LOX IMVI melanoma, in the test on SK-MEL-5 melanoma and in the test on SNB-19 CNS was over 100 µM each time.
